Test results as given in PubChem BioAssay AID1918941 (Molecular Pharmacology Branch, DTP, NCI, 2023).

System: SW 1271 complex spheroids, viability
Assay: Anticancer human tumor SW 1271 cell line growth inhibition [LSD1];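 also: spheroids exposed to agents for 7 days before luminescence read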;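 as to viability, T/C: 100% = DMSO vehicle control viability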
Details: for IC50: curve of first compound; for viability, T/C: stronger effect = lower value
Procedure, shortened: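 Drug combinations with the LSD1 inhibitor iadademstat tested on tumor cells co-cultured as spheroids with endothelial cells and mesenchymal stem cells. Concentrations descended in half-log increments from clinical Cmax or 10 microM.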

[1] = second compound 0.1 µM, first compound 0.00949 µM
[2] = second compound 0.1 µM, first compound 0.03 µM
[3] = second compound 0.1 µM, first compound 0.0949 µM
[4] = second compound 0.1 µM, first compound 0.3 µM
[5] = second compound 0.1 µM, first compound 0.949 µM
[6] = second compound 0.1 µM, first compound 3 µM
[7] = second compound 0.316 µM, first compound 0.00949 µM
[8] = second compound 0.316 µM, first compound 0.03 µM
[9] = second compound 0.316 µM, first compound 0.0949 µM
[10] = second compound 0.316 µM, first compound 0.3 µM
[11] = second compound 0.316 µM, first compound 0.949 µM
[12] = second compound 0.316 µM, first compound 3 µM
[13] = second compound 1 µM, first compound 0.00949 µM
[14] = second compound 1 µM, first compound 0.03 µM
[15] = second compound 1 µM, first compound 0.0949 µM
[16] = second compound 1 µM, first compound 0.3 µM
[17] = second compound 1 µM, first compound 0.949 µM
[18] = second compound 1 µM, first compound 3 µM
[19] = second compound 3.16 µM, first compound 0.00949 µM
[20] = second compound 3.16 µM, first compound 0.03 µM
[21] = second compound 3.16 µM, first compound 0.0949 µM
[22] = second compound 3.16 µM, first compound 0.3 µM
[23] = second compound 3.16 µM, first compound 0.949 µM
[24] = second compound 3.16 µM, first compound 3 µM
[25] = second compound 10 µM, first compound 0.00949 µM
[26] = second compound 10 µM, first compound 0.03 µM
[27] = second compound 10 µM, first compound 0.0949 µM
[28] = second compound 10 µM, first compound 0.3 µM
[29] = second compound 10 µM, first compound 0.949 µM
[30] = second compound 10 µM, first compound 3 µM

NS(=O)(=O)OCC1CC(n2ccc3c(NC4CCc5ccccc54)ncnc32)CC1O (stereo not given) + NC1CC1c1ccc(-c2cccc(O)c2)cc1
IC50 (second compound 0.1 µM): > 3 µM
IC50 (second compound 0.316 µM): > 3 µM
IC50 (second compound 1 µM): > 3 µM
IC50 (second compound 3.16 µM): > 3 µM
IC50 (second compound 10 µM): > 3 µM
viability, T/C [1]: 151%
viability, T/C [2]: 123%
viability, T/C [3]: 103%
viability, T/C [4]: 86%
viability, T/C [5]: 85.5%
viability, T/C [6]: 88.5%
viability, T/C [7]: 166%
viability, T/C [8]: 112%
viability, T/C [9]: 94.5%
viability, T/C [10]: 82.3%
viability, T/C [11]: 82.1%
viability, T/C [12]: 79.9%
viability, T/C [13]: 148%
viability, T/C [14]: 110%
viability, T/C [15]: 95.9%
viability, T/C [16]: 75.8%
viability, T/C [17]: 85.9%
viability, T/C [18]: 79%
viability, T/C [19]: 144%
viability, T/C [20]: 101%
viability, T/C [21]: 99.9%
viability, T/C [22]: 85.5%
viability, T/C [23]: 75.6%
viability, T/C [24]: 83.9%
viability, T/C [25]: 141%
viability, T/C [26]: 116%
viability, T/C [27]: 115%
viability, T/C [28]: 101%
viability, T/C [29]: 87.3%
viability, T/C [30]: 91.1%

Nc1ccccc1NC(=O)c1ccc(CNC(=O)OCc2cccnc2)cc1 + NC1CC1c1ccc(-c2cccc(O)c2)cc1
IC50 (second compound 0.1 µM): 0.106 µM
IC50 (second compound 0.316 µM): 0.12 µM
IC50 (second compound 1 µM): 0.0626 µM
IC50 (second compound 3.16 µM): 0.0762 µM
IC50 (second compound 10 µM): 0.0381 µM
viability, T/C [1]: 85.6%
viability, T/C [2]: 65.7%
viability, T/C [3]: 56.7%
viability, T/C [4]: 29.6%
viability, T/C [5]: 8.17%
viability, T/C [6]: 3.78%
viability, T/C [7]: 89.2%
viability, T/C [8]: 75.3%
viability, T/C [9]: 57.3%
viability, T/C [10]: 27.7%
viability, T/C [11]: 6.71%
viability, T/C [12]: 4.39%
viability, T/C [13]: 94.3%
viability, T/C [14]: 59.9%
viability, T/C [15]: 46.6%
viability, T/C [16]: 26.6%
viability, T/C [17]: 7.28%
viability, T/C [18]: 5.61%
viability, T/C [19]: 81.3%
viability, T/C [20]: 69.7%
viability, T/C [21]: 40.5%
viability, T/C [22]: 32.4%
viability, T/C [23]: 10%
viability, T/C [24]: 4.69%
viability, T/C [25]: 66.7%
viability, T/C [26]: 51.9%
viability, T/C [27]: 38.6%
viability, T/C [28]: 29.4%
viability, T/C [29]: 11.7%
viability, T/C [30]: 6.45%

O=C(C=Cc1cccc(S(=O)(=O)Nc2ccccc2)c1)NO + NC1CC1c1ccc(-c2cccc(O)c2)cc1
IC50 (second compound 0.1 µM): 0.0982 µM
IC50 (second compound 0.316 µM): 0.0629 µM
IC50 (second compound 1 µM): 0.0553 µM
IC50 (second compound 3.16 µM): 0.06 µM
IC50 (second compound 10 µM): 0.0681 µM
viability, T/C [1]: 74.5%
viability, T/C [2]: 69%
viability, T/C [3]: 51.8%
viability, T/C [4]: 17.9%
viability, T/C [5]: 7.5%
viability, T/C [6]: 0.27%
viability, T/C [7]: 70.3%
viability, T/C [8]: 61.8%
viability, T/C [9]: 44%
viability, T/C [10]: 17.4%
viability, T/C [11]: 6.95%
viability, T/C [12]: 0.16%
viability, T/C [13]: 75.7%
viability, T/C [14]: 60.1%
viability, T/C [15]: 41.8%
viability, T/C [16]: 14.3%
viability, T/C [17]: 6.33%
viability, T/C [18]: 0.7%
viability, T/C [19]: 72.7%
viability, T/C [20]: 58.4%
viability, T/C [21]: 45.6%
viability, T/C [22]: 14.1%
viability, T/C [23]: 6.89%
viability, T/C [24]: 0.2%
viability, T/C [25]: 67.1%
viability, T/C [26]: 59.9%
viability, T/C [27]: 46.5%
viability, T/C [28]: 17.6%
viability, T/C [29]: 5.74%
viability, T/C [30]: 0.36%
